The record followed here is patent US6479548B2, “Substituted stilbenes as glucose uptake enhancers” (Telik, Inc., priority 2000, dated 2002).

The target of the first assay is T1, complete β-kinase domain of the human insulin receptor (CKD) (Homo sapiens, UniProt P06213).
T1 construct: The complete β-kinase domain of the human insulin receptor (CKD); made in house
T1 sequence (P06213 1023-1298 limits assumed): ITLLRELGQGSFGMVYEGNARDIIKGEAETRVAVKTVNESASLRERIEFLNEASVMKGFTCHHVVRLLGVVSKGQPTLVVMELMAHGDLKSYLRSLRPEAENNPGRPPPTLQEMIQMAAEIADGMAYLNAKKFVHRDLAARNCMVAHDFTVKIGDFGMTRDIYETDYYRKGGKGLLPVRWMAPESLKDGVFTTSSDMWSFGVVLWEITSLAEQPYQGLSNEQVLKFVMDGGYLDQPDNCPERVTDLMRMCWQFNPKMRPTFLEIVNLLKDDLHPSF
In words: 32P-CKD autophosphorylation assay. The assay is classed as biochemical. The settings on record: 10 min; compound at 10 μM; phosphorylation of CKD expressed as % of the vehicle level; read-out: Activity (% vs. control). Here is the method:
The complete β-kinase domain of the human insulin receptor (CKD) was expressed in, and purified from, baculovirus. CKD (4.0 μg/ml), in a solution of 29 mM HEPES (pH 7.6), 0.05% Triton X-100, 10 mM MgCl2, 2 mM MnCl2 (50 μl final volume), is combined with 50 μM ATP, and 5 μCi ^32P-ATP (3000 Ci/mmol).
On to `COC(=O)c1cc(/C=C/c2ccccc2)ccc1NC(=O)c1ccc(OC)c(OC)c1` [Compound 52, methyl 5-((1E)-2-phenylvinyl)-2-[(3,4-dimethoxyphenyl)carbonylamino]benzoate], for which the activity at 10 µM was 54%.
Still for that read-out and setting: to `COC(=O)c1ccc(C(=O)N(C)c2ccc(C(=O)Nc3ccc(/C=C/c4cccc(F)c4)cc3C(=O)OC)cc2)cc1` [Compound 37, methyl 4-{N-[4-(N-{4-[(1E)-2-(3-fluorophenyl)vinyl]-2-(methoxycarbonyl)phenyl}-carbamoyl)phenyl]-N-methylcarbamoyl}benzoate] belongs 93%.
For the molecule `CC(=O)N(c1ccc(C(=O)O)cc1)c1ccc(C(=O)Nc2ccc(/C=C/c3ccc(F)cc3)cc2C(=O)O)cc1` [Compound 35, 5-[(1E)-2-(4-fluorophenyl)vinyl]-2-({4-[(4-carboxyphenyl)-N-methylcarbonyl-amino]phenyl}carbonylamino)benzoic acid], the activity at 10 µM was determined as 177%.
The same measure, in the same setting: next, `COc1cc(C(=O)Nc2ccc(/C=C/c3ccccc3)cc2C(=O)O)cc(OC)c1OC` [Compound 26, 5-((1E)-2-phenylvinyl)-2-[(3,4,5-trimethoxyphenyl)carbonylamino]benzoic acid]: 107%; `COC(=O)c1ccc(/C=C/c2ccc(NC(=O)c3ccc(N(C)C(=O)c4ccc(C(=O)OC)cc4)cc3)cc2)cc1` [Compound 44, methyl 4-(N-{4-[N-(4-{(1E)-2-[4-(methoxycarbonyl)phenyl]vinyl}phenyl)-carbamoyl]phenyl}-N-methylcarbamoyl)benzoate]: 97%.
On the same count and under the same terms, next, `O=C(Nc1ccc(/C=C/c2ccccc2)cc1C(=O)O)c1cc(O)cc(O)c1` [Compound 41, 5-((1E)-2-phenylvinyl)-2-[(3,5-dihydroxyphenyl)carbonylamino]benzoic acid]: 80%.
On the same count and under the same terms, next, `O=C(O)COc1cc(OCC(=O)O)cc(C(=O)Nc2ccc(/C=C/c3ccccc3)cc2C(=O)O)c1` [Compound 59, 5-((1E)-2-phenylvinyl)-2-{[3,5-bis(carboxymethoxy)phenyl]carbonylamino}benzoic acid]: 94%; `COC(=O)c1ccc(C(=O)N(C)c2ccc(C(=O)Nc3ccc(/C=C/c4ccc(OC)cc4)cc3C(=O)OC)cc2)cc1` [Compound 29, methyl 4-{N-[4-(N-{4-[(1E)-2-(4-methoxyphenyl)vinyl]-2-(methoxycarbonyl)-phenyl}carbamoyl)phenyl]-N-methylcarbamoyl}benzoate]: 61%.
As to `COc1cccc(C(=O)Nc2ccc(/C=C/c3ccccc3)cc2CC(=O)O)c1` [Compound 55, 2-{5-((1E)-2-phenylvinyl)-2-[(3-methoxyphenyl)carbonylamino]phenyl}acetic acid], the activity at 10 µM is 117%.
Same read-out and setting: next, `COC(=O)c1ccc(N(C(C)=O)c2ccc(C(=O)Nc3ccc(/C=C/c4ccc(OC)cc4)cc3C(=O)O)cc2)cc1` [Compound 30, 5-[(1E)-2-(4-methoxyphenyl)vinyl]-2-[(4-{[4-(methoxycarbonyl)phenyl]-N-methyl-carbonylamino}phenyl)carbonylamino]benzoic acid]: 93%; `CC(=O)N(c1ccc(C(=O)O)cc1)c1ccc(C(=O)Nc2ccc(/C=C/c3ccccc3F)cc2C(=O)O)cc1` [Compound 33, 5-[(1E)-2-(2-fluorophenyl)vinyl]-2-({4-[(4-carboxyphenyl)-N-methylcarbonyl-amino]phenyl}carbonylamino)benzoic acid]: 78%; `CN(C(=O)c1ccccc1)c1ccc(/C=C/c2ccccc2)cc1C(=O)O` [Compound 25, 5-((1E)-2-phenylvinyl)-2-(N-methylphenylcarbonylamino)benzoic acid]: 59%.
Still for that read-out and setting: next, `CC(=O)N(c1ccc(/C=C/c2ccc(OC(C)(C)C)c(C(=O)O)c2)cc1)c1ccc(N(C(C)=O)c2ccc(C(=O)O)cc2)cc1` [Compound 50, 5-{(1E)-2-[4-({4-[(4-carboxyphenyl)-N-methylcarbonylamino]phenyl}-N-methyl-carbonylamino)phenyl]vinyl}-2-(tert-butoxy)benzoic acid]: 105%; `COC(=O)c1ccc(N(C(C)=O)c2ccc(C(=O)Nc3ccc(/C=C/c4ccc(S(=O)(=O)O)cc4)cc3C(=O)OC)cc2)cc1` [Compound 36, 4-((1E)-2-{3-(methoxycarbonyl)-4-[(4-{[4-(methoxycarbonyl)phenyl]-N-methyl-carbonylamino}phenyl)carbonylamino]phenyl}vinyl)benzenesulfonic acid]: 171%.
On the same count and under the same terms, to `COC(=O)c1ccc(N(C(C)=O)c2ccc(N(C(C)=O)c3ccc(/C=C/c4ccc(OC(C)(C)C)c(C(=O)O)c4)cc3)cc2)cc1` [Compound 49, 5-((1E)-2-{4-[(4-{[4-(methoxycarbonyl)phenyl]-N-methylcarbonylamino}phenyl)-N-methylcarbonylamino]phenyl}vinyl)-2-(tert-butoxy)benzoic acid] belongs 81%; to `COC(=O)c1ccc(C(=O)N(C)c2ccc(C(=O)Nc3ccc(/C=C/c4ccccc4F)cc3C(=O)OC)cc2)cc1` [Compound 32, methyl 4-{N-[4-(N-{4-[(1E)-2-(2-fluorophenyl)vinyl]-2-(methoxycarbonyl)phenyl}-carbamoyl)phenyl]-N-methylcarbamoyl}benzoate], 81%.
In the case of `COC(=O)c1cc(/C=C/c2ccccc2)ccc1NC(=O)c1ccccc1` [Compound 27, methyl 5-((1E)-2-phenylvinyl)-2-[phenylcarbonylamino)benzoate], the activity at 10 µM came out at 73%.
For `COc1ccc(/C=C/c2ccc(N(Cc3ccc(C(=O)O)cc3)C(=O)c3ccc(N(C(C)=O)c4ccc(C(=O)O)cc4)cc3)c(C(=O)O)c2)cc1` [Compound 57, 5-[(1E)-2-(4-methoxyphenyl)vinyl]-2-(N-[(4-carboxyphenyl)methyl]{4-[(4-carboxy-phenyl)-N-methylcarbonylamino]phenyl}carbonylamino)benzoic acid], the activity at 10 µM is 107%.
On the same count and under the same terms, next, `COC(=O)c1ccc(N(C(C)=O)c2ccc(C(=O)Nc3ccc(/C=C/c4cccc(CC(=O)O)c4)cc3)cc2)cc1` [Compound 46, 2-[3-((1E)-2-{4-[(4-{[4-(methoxycarbonyl)phenyl]-N-methylcarbonylamino}-phenyl)carbonylamino]phenyl}vinyl)phenyl]acetic acid]: 91%.
On the same count and under the same terms, to `COc1ccc(C(=O)Nc2ccc(/C=C/c3ccccc3)cc2C(=O)O)cc1OC` [Compound 53, 5-((1E)-2-phenylvinyl)-2-[(3,4-dimethoxyphenyl)carbonylamino]benzoic acid] belongs 105%; to `COC(=O)c1ccc(N(C(C)=O)c2ccc(C(=O)Nc3ccc(/C=C/c4ccccc4)c(C(=O)O)c3)cc2)cc1` [Compound 39, 2-((1E)-2-phenylvinyl)-5-[(4-{[4-(methoxycarbonyl)phenyl]-N-methylcarbonyl-amino}phenyl)carbonylamino]benzoic acid], 64%; to `COC(=O)c1ccc(C(=O)N(C)c2ccc(C(=O)Nc3ccc(/C=C/c4ccc(F)cc4)cc3C(=O)OC)cc2)cc1` [Compound 34, methyl 4-{N-[4-(N-{4-[(1E)-2-(4-fluorophenyl)vinyl]-2-(methoxycarbonyl)phenyl}-carbamoyl)phenyl]-N-methylcarbamoyl}benzoate], 88%.
On the same count and under the same terms, to `COc1cccc(C(=O)Nc2ccc(/C=C/c3ccccc3)cc2C(=O)O)c1` [Compound 42, 5-((1E)-2-phenylvinyl)-2-[(3-methoxyphenyl)carbonylamino]benzoic acid] belongs 123%; to `O=C(Nc1ccc(/C=C/c2ccccc2)c(C(=O)O)c1)c1ccccc1` [Compound 38, 2-((1E)-2-phenylvinyl)-5-(phenylcarbonylamino)benzoic acid], 105%; to `O=C(O)c1ccc(COc2cc(OCc3ccc(C(=O)O)cc3)cc(C(=O)Nc3ccc(/C=C/c4ccccc4)cc3C(=O)O)c2)cc1` [Compound 60, 5-((1E)-2-phenylvinyl)-2-({3,5-bis[(4-carboxyphenyl)methoxy]phenyl}carbonyl-amino)benzoic acid], 80%.
With `COc1ccc(/C=C/c2ccc(N(C)C(=O)c3ccccc3)c(C(=O)O)c2)cc1` [Compound 28, 5-[(1E)-2-(4-methoxyphenyl)vinyl]-2-(N-methylphenylcarbonylamino)benzoic acid], the activity at 10 µM turned out to be 75%.
Same read-out and setting: next, `COc1ccc(/C=C/c2ccc(NC(=O)c3ccc(N(C(C)=O)c4ccc(C(=O)O)cc4)cc3)c(C(=O)O)c2)cc1` [Compound 31, 5-[(1E)-2-(4-methoxyphenyl)vinyl]-2-({4-[(4-carboxyphenyl)-N-methylcarbonyl-amino]phenyl}carbonylamino)benzoic acid]: 121%.

The assay is the same for the next values; noted with them: compound at 10 μM; phosphorylation of CKD expressed as % of the vehicle level.
Take `COc1ccc(/C=C/c2ccc(NC(=O)c3ccc4c(c3)OCO4)cc2)cc1` [Compound 56, N-{4-[(1E)-2-(4-methoxyphenyl)vinyl]phenyl}-2H-benzo[d]1,3-dioxolen-5-yl-carboxamide]: the “Activity (% vs. control)” value turned out to be 51%.
